# Patent publication US20070021360A1, “Compositions, formulations and kit with anti-sense oligonucleotide and anti-inflammatory steroid and/or obiquinone for treatment of respiratory and lung disesase” (priority 2001, published 2007)
# Key:
# Intracellular Adenosine = assay: In vivo effect on adenosine levels in rat tissues (HPLC); design: species or system Fischer 344 rats
# Description: Folinic acid (50 mg/kg) was administered intraperitoneally once daily for fourteen days. […] Hearts were removed from animals and flash frozen in liquid nitrogen with 10 seconds of death. Liver and lungs were removed en bloc and flash frozen with 30 seconds of death. Brain tissue was subsequently dissected.
# [1] = biological target: B2 bradykinin receptor (rabbit airway smooth muscle membranes) (rabbit) (UniProt Q28642); assay: radioligand binding, airway smooth muscle membranes; rabbits treated with B2MM mismatch control, 2 mg
# [2] = biological target: B2 bradykinin receptor (rabbit airway smooth muscle membranes) (rabbit) (UniProt Q28642); assay: radioligand binding, airway smooth muscle membranes; rabbits treated with A1MM1 mismatch control, 2 mg
# [3] = biological target: B2 bradykinin receptor (rabbit airway smooth muscle membranes) (rabbit) (UniProt Q28642); assay: radioligand binding, airway smooth muscle membranes; rabbits treated with B2A bradykinin receptor anti-sense oligo, 0.2 mg
# [4] = biological target: B2 bradykinin receptor (rabbit airway smooth muscle membranes) (rabbit) (UniProt Q28642); assay: radioligand binding, airway smooth muscle membranes; rabbits treated with B2MM mismatch control, 20 mg
# [5] = biological target: B2 bradykinin receptor (rabbit airway smooth muscle membranes) (rabbit) (UniProt Q28642); assay: radioligand binding, airway smooth muscle membranes; rabbits treated with B2A bradykinin receptor anti-sense oligo, 2 mg
# [6] = biological target: B2 bradykinin receptor (rabbit airway smooth muscle membranes) (rabbit) (UniProt Q28642); assay: radioligand binding, airway smooth muscle membranes; rabbits treated with A1 receptor anti-sense oligo, 20 mg
# [7] = biological target: B2 bradykinin receptor (rabbit airway smooth muscle membranes) (rabbit) (UniProt Q28642); assay: radioligand binding, airway smooth muscle membranes; rabbits treated with A1 receptor anti-sense oligo, 2 mg
# [8] = biological target: B2 bradykinin receptor (rabbit airway smooth muscle membranes) (rabbit) (UniProt Q28642); assay: radioligand binding, airway smooth muscle membranes; rabbits treated with A1MM1 mismatch control, 20 mg
# [9] = biological target: B2 bradykinin receptor (rabbit airway smooth muscle membranes) (rabbit) (UniProt Q28642); assay: radioligand binding, airway smooth muscle membranes; rabbits treated with A1 receptor anti-sense oligo, 0.2 mg
# [10] = biological target: B2 bradykinin receptor (rabbit airway smooth muscle membranes) (rabbit) (UniProt Q28642); assay: radioligand binding, airway smooth muscle membranes; rabbits treated with B2MM mismatch control, 0.2 mg
# [11] = biological target: B2 bradykinin receptor (rabbit airway smooth muscle membranes) (rabbit) (UniProt Q28642); assay: radioligand binding, airway smooth muscle membranes; saline control rabbits
# [12] = biological target: B2 bradykinin receptor (rabbit airway smooth muscle membranes) (rabbit) (UniProt Q28642); assay: radioligand binding, airway smooth muscle membranes; rabbits treated with B2A bradykinin receptor anti-sense oligo, 20 mg
# allergic rabbits [13] = assay: Allergen-induced airway obstruction in allergic rabbits; assay type: in vivo, rabbit; conditions: compared with mismatched control; from area under the plotted curve; p<0.05
# adenosine A1 receptor [14] = biological target: T1, adenosine A1 receptor (Oryctolagus cuniculus, UniProt P34970); conditions: mismatch controls; Nyce & Metzger (1997); cited from earlier work
# T1 construct: Airway smooth muscle tissue was dissected from each rabbit and a membrane fraction prepared; from tissue; host or cells: rabbit airway smooth muscle, crude plasma membranes
# T1 sequence (P34970 1-328): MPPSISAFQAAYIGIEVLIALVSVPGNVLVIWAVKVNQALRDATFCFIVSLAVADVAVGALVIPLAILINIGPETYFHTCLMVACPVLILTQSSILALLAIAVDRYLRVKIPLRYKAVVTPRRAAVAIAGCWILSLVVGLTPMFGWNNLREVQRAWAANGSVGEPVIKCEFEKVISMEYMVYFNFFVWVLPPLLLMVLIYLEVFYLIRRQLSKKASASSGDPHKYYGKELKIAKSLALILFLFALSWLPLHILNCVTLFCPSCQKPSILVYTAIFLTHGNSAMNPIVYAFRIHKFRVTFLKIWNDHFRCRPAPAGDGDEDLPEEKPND
# allergic rabbits [15] = assay: Allergen-induced bronchial hyperresponsiveness (PC50 Histamine) in allergic rabbits; assay type: in vivo, rabbit; conditions: compared to mismatched control; from PC50 Histamine value; p<0.05
# Description: Each allergic rabbit was administered histamine by aerosol to determine their baseline hyperresponsiveness. Aerosols of either saline or hitamine were generated using a DeVilbiss nebulizer (DeVilbiss, Somerset, Pa.) for 30 seconds and then for 2 minutes at each dose employed. The ultrasonic nebulizer produced aerosol droplets of which 80% were <5 micron in diameter. The histamine aerosol was administered in increasing concentrations (0.156 to 80 mg/ml) and measurements of pulmonary function were made after each dose. The […] was then determined by calculating the concentration of histamine (mg/ml) required to reduce the Cdyn 50% from baseline (PC50 Histamine)
# adenosine A1 receptor [16] = assay: Adenosine-induced bronchoconstriction (PC50 Adenosine) in allergic rabbits; assay type: in vivo; conditions: allergic rabbits; for effect on PC50 Adenosine value: cross-over experiment, 20 mg total aerosolized oligo
# Description: A fortuitous hoology between the rabbit and human DNA sequences within the adenosine A1 gene overlapping the initiation codon permitted the use of the phosphorothioate anti-sense oligonucleotides initially designed for use against the human adenosine A1 receptor in a rabbit model. Neonatal New Zealand white Pasteurella-free rabbits were immunized intraperitoneally within 24 hours of birth with 312 antigen units/ml house dust mite (D. farinae) extract (Berkeley Biologicals, Berkeley, Calif.), mixed with 10% kaolin. Immunizations were repeated weekly for the first month and then biweekly for the next 2 months. At 3-4 months of age, eight sensitized rabbits were anesthetized and relaxed with a mixture of ketamine hydrochloride (44 mg/kg) and acepromazine maleate (0.4 mg/kg) administered intramuscularly. The rabbits were then laid supine in a comfortable position on a small molded, padded animal board and intubated with a 4.0-mm intratracheal tube (Mallinkrodt, Inc., Glens Falls, N.Y.). A polyethylene catheter of external diameter 2.4 mm with an attached latex balloon was passed into the esophagus and maintained at the same distance (approximately 16 cm) from the mouth throughout the experiments. The intratracheal tube was attached to a heated Fleisch pneumotachograph (size 00; DOM Medical, Richmond, Va.), and flow was measured using a Validyne differential pressure transducer (Model DP-45161927; Validyne Engineering Corp., Northridge, Calif.) driven by a Gould carrier amplifier (Model 11-4113; Gould Electronic, Cleveland, Ohio). The esophageal balloon was attached to one side of the differential pressure transducer, and the outflow of the intratracheal tube was connected to the opposite side of the pressure transducer to allow recording of transpulmonary pressure. Flow was integrated to give a continuous tidal volume, and measurements of total lung resistance (RL) and dynamic compliance (Cdyn) were calculated at isovolumetric and flow zero points, respectively, using an automated respiratory analyzer (Model 6; Buxco, Sharon, Conn.). Animals were randomized and on Day 1 pretreatment values for PC50 were obtained for aerosolized adenosine. Anti-sense (HAdA1AS) or mismatched control (HAdA1MM) oligonucleotides were dissolved in sterile physiological saline at a concentration of 5000 μg (5 mg) per 1.0 ml. […] Aerosols of either saline, adenosine, or anti-sense or mismatch oligonucleotides were generated by an ultrasonic nebulizer (DeVilbiss, Somerset, Pa.), producing aerosol droplets 80% of which were smaller than 5:m in diameter. In the first arm of the experiment, four randomly selected allergic rabbits were administered anti-sense oligonucleotide and four the mismatched control oligonucleotide. On the morning of the third day, PC50 values (the concentration of aerosolized adenosine in mg/ml required to reduce the dynamic compliance of the bronchial airway 50% from the baseline value) were obtained and compared to PC50 values obtained for these animals prior to exposure to oligonucleotide. Following a 1 week interval, animals were crossed over, with those previously administered mismatch control oligonucleotide now administered anti-sense oligonucleotide, and those previously treated with anti-sense oligonucleotide now administered mismatch control oligonucleotide. Treatment methods and measurements were identical to those employed in the first arm of the experiment. […] For the purpose of calculation, PC50 values for these animals were set at 20 mg/ml. The values given therefore represent a minimum figure for anti-sense effectiveness. Actual effectiveness was higher.
# Aerosols of either adenosine (0-20 mglnml), or anti-sense or one of two mismatch oligonucleotides (5 mg/ml) were separately prepared with an ultrasonic nebulizer (Model 646, DeVilbiss, Somerset, Pa.), which produced aerosol droplets, 80% of which were smaller than 5:m in diameter. […]
# adenosine A3 receptor = assay: Inflammatory cells in bronchial lavage fluid after dust mite allergen; assay type: in vivo, rabbit; conditions: allergic rabbits, 20 mg oligo, lavage 3 hours later
# Description: The number of inflammatory cells was determined in their bronchial lavage fluid 3 hours later by counting at least 100 viable cells per lavage. The effect of anti-sense oligos III (SEQ ID NO: 9377) and IV (SEQ ID NO: 9378) upon granulocytes, and upon total cells in bronchial lavage were assessed following exposure to dust mite allergen. […] As is known in the art, granulocytes, especially eosinophils, are the primary inflammatory cells of asthma and the administration of anti-sense oligos III (SEQ ID NO: 9377) and IV (SEQ ID NO: 9378) reduced their numbers by 40% and 66%, respectively. […] This is also an important indicator of anti-inflammatory activity by the present anti-adenosine A3 agents of the invention. Inflammation is known to underlie bronchial hyperresponsiveness and allergen-induced bronchoconstriction in asthma. Both anti-sense oligonucleotides III (SEQ ID NO: 9377) and IV (SEQ ED NO: 9378), which are targeted to the adenosine A3 receptor, are representative of an important new class of anti-inflammatory agents which may be designed to specifically target the lung receptors of each species.
# HT-29 SF cells [17] = assay: Reversal of DHEA-mediated growth inhibition; assay type: cell-based, human; conditions: 25 μM DHEA; supplement in medium; 48 hours
# HT-29 SF cells [18] = assay: Reversal of DHEA effect on cell cycle; assay type: cell-based, human; conditions: 25 FM DHEA; supplement in medium; 48 and 72 hours
# [19] = once daily 14 days, DHEA 300 mg/kg, methyltestosterone 40 mg/kg (120 mg/kg in M + F.A.), folinic acid 50 mg/kg, mean ± SEM
# [20] = daily for two weeks, DHEA or high dose methyltestosterone
# [21] = methyltestosterone 120 mg/kg, mean ± SEM
# Chain of B2 bradykinin receptor (rabbit airway smooth muscle membranes) (rabbit) (Q28642 whole entry): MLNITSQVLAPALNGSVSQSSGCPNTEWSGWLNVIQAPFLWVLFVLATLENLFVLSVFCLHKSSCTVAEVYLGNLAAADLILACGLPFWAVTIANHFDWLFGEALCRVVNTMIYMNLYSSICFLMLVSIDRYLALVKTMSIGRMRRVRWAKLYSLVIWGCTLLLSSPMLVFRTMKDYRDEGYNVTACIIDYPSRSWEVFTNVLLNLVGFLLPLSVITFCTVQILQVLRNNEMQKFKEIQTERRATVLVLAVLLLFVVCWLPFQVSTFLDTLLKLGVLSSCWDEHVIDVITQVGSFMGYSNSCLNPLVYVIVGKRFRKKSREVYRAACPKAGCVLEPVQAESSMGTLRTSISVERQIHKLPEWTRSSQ
molecule,measurement,setting,value
"Nc1nc(=O)c2c([nH]1)NCC(CNc1ccc(C(=O)N[C@@H](CCC(=O)O)C(=O)O)cc1)N2C=O (mixture of isomers) [Folinic Acid (F.A.), Folinic acid]",effect on adenosine levels when administered alone,Intracellular Adenosine; folinic acid 50 mg/kg intraperitoneally,increase in adenosine levels for all organs studied
same,effect of co-administration on steroid-mediated adenosine depletion,Intracellular Adenosine; folinic acid co-administered with DHEA or methyltestosterone,completely abrogated steroid-mediated adenosine depletion
same,"Intracellular Adenosine, Brain",Intracellular Adenosine; [19],0.72 ± 0.09 nmol/mg protein
same,"Intracellular Adenosine, Heart",Intracellular Adenosine; [19],12.4 ± 2.1 nmol/mg protein
[3H]NPC 17731 (peptide),Kd,[1],0.37 nM
same,Kd,[2],0.38 nM
same,Kd,[3],0.35 nM
same,Kd,[4],0.41 nM
same,Kd,[5],0.34 nM
same,Kd,[6],0.39 nM
same,Kd,[7],0.41 nM
same,Kd,[8],0.35 nM
same,Kd,[9],0.34 nM
same,Kd,[10],0.36 nM
same,Kd,[11],0.39 nM
same,Kd,[12],0.38 nM
"C[C@]12CCC(=O)C=C1CC[C@@H]1[C@@H]2CC[C@@]2(C)[C@H]1CC[C@]2(C)O [Methyltestosterone, methyltestosterone]",depletion of adenosine in brain,Intracellular Adenosine; [20],34%
same,depletion of adenosine in heart,Intracellular Adenosine; [20],22%
same,"Intracellular Adenosine, Brain",Intracellular Adenosine; in vivo,0.42 ± 0.06 nmol/mg protein
same,"Intracellular Adenosine, Heart",Intracellular Adenosine; in vivo,8.3 ± 1.0 nmol/mg protein
same,"Intracellular Adenosine, Brain",Intracellular Adenosine; [21],0.32 ± 0.03 nmol/mg protein
same,"Intracellular Adenosine, Heart",Intracellular Adenosine; [21],6.0 ± 0.4 nmol/mg protein
"5′-GTAGGTGGCGGGCAAGGCGGG-3′ (antisense GTAGGTGGCGGGCAAGGCGGG; phosphorothioate, further chemistry not given here) [Oligo A1MM2, mismatch control for anti-sense oligo I, reference compound]",inhibition of allergen-induced airway obstruction,allergic rabbits [13],complete lack of effect
same,"effect upon any of the targeted receptors (A1, A2 or B2)",adenosine A1 receptor [14],absolutely no effect
same,inhibition of allergen-induced BHR,allergic rabbits [15],complete lack of effect
same,PC50 Adenosine,adenosine A1 receptor [16]; Total Dose 0.2 mg,2.51 ± 0.46 mg Adenosine
same,PC50 Adenosine,adenosine A1 receptor [16]; Total Dose 2.0 mg,3.13 ± 0.71 mg Adenosine
same,PC50 Adenosine,adenosine A1 receptor [16]; Total Dose 20 mg,3.25 ± 0.34 mg Adenosine
same,effect on PC50 Adenosine value,adenosine A1 receptor [16],no effect
"5′-GGC CCA GGG CCA GCC-31 (antisense GGCCCAGGGCCAGCC; all phosphorothioate, sugars by position and methylation of C not given here) [Oligo IV, targets adenosine A3 receptor mRNA +386 to +401]",reduction of granulocyte numbers in bronchial lavage,adenosine A3 receptor,66%
same,reduction of total number of cells in bronchial lavage fluid,adenosine A3 receptor,40%
"C[C@@](O)(CCO)CC(=O)O [MVA, mevalonic acid]",reversal of DHEA-induced growth inhibition,HT-29 SF cells [17],partially overcome
same,prevention of DHEA-induced S phase depletion,HT-29 SF cells [18],partially prevented this effect in the initial 48 hours but not after 72 hours
"CC(C)CCC[C@@H](C)[C@H]1CC[C@H]2[C@@H]3CC=C4C[C@@H](O)CC[C@]4(C)[C@H]3CC[C@]12C [CH, cholesterol]",reversal of DHEA-induced growth inhibition,HT-29 SF cells [17],no such effect
same,prevention of DHEA-induced S phase depletion,HT-29 SF cells [18],very little effect at 48 hours and no effect at 72 hours
"5′-GATGGAGGCGGGCATGGCGGG-3 [Oligo A1MM3, reference compound]","effect upon any of the targeted receptors (A1, A2 or B2)",adenosine A1 receptor [14],absolutely no effect
same,effect on PC50 Adenosine value,adenosine A1 receptor [16],no effect
"CC(C)=CCC/C(C)=C/CC/C(C)=C/CC/C=C(\C)CC/C=C(\C)CCC=C(C)C [SQ, squalene]",reversal of DHEA-induced growth inhibition,HT-29 SF cells [17],no such effect
